In experiment [1] the test system is cellular microtubules in HeLa cells. Nature of the experiment: Quantitative immunoluminescent assay of the cellular microtubule content. In kind it is cell-based. To be noted: Homo sapiens, 0.5 h, 30 min incubation, mean ± SEM, read-out: IC50, drug concentration able to reduce the amount of cellular microtubules by half. The procedure:
7500 HeLa cells were seeded in 96-well microplates (#655086, Greiner bio One, Courtaboeuf, France) in 100 µL of complete medium per well and then incubated at 37 °C in 5% CO2 for 24 h. Cells were then treated for 30 min at 37 °C with the compounds at concentrations ranging from 1 to 5000 nM (1 microplate per molecule, 1 concentration per column), with 0.1% DMSO used as […] control (6 wells per microplate). After medium aspiration, treated cells were permeabilized for 10 min using 100 µL per well of warmed (37 °C) OPT buffer (80 mM Pipes, 1 mM EGTA, 1 mM MgCl2, 0.5% Triton X-100, and 10% glycerol, pH 6.8). Cells were fixed overnight at room temperature using 100 µL per well of 4% formaldehyde (Sigma Aldrich, #252549, Saint-Quentin-Fallavier, France) in PBS. Cells were washed 3 times in PBS, 0.1% Tween-20 (100 µL per well), then primary anti-alpha-tubulin antibody (clone α3A1 [40], 1:5000 in PBS 2% Bovine Serum Albumin (BSA)) was added for 45 min. Cells were washed twice again and secondary anti-mouse antibody coupled to HRP (1:2000 in PBS 2% BSA, #715-035-150, Jackson Immuno-Research Laboratories, Cambridgeshire, UK) was added for 45 min. Then, cells were washed again with PBS and 100 µL of ECL substrate (#170-5061, Bio-Rad Laboratories inc., USA) were injected in each well using the FLUOstar OPTIMA Microplate Reader (BMG Lab technology, Champagny-sur-Marne, France). The luminescent signal was read immediately after ECL injection.

The subject of the next experiment is HeLa cells microtubules. In words: Immunofluorescence analysis of HeLa cells microtubules. In kind it is cell-based, Human. To be noted: 50 nM, 30 min. The procedure:
(§1) Cells at a density of 20,000 cells per well were grown for 48 h on glass coverslips placed in a 24-well microplate. When cells reached 70% confluence, the medium was replaced with a fresh one supplemented with DMSO (0.005% or 0.01%) or the test compound at 50 nM or 1000 nM. After 30 min of incubation, cells were permeabilized in warm OPT buffer (80 mmol/L Pipes, […], 0.5% Triton X-100 and 10% Glycerol, pH 6.8) and fixed for 6 min in −20 °C methanol (Carlo ERBA SAS, #414855, Val-de-Reuil, France). After washing and saturation with a specific blocking buffer (3% BSA), 10% Goat serum (Gibco Invitrogen, #16210064, Carlsbad, CA, USA) in PBS), cells were incubated for 45 min at room temperature (RT) with anti-alpha-tubulin antibody (clone α3A1 [40] in blocking buffer). Cells were washed twice again and subsequently incubated with Alexa 488 conjugated anti-mouse antibody (1:500 in blocking buffer, #115-545-166, Jackson immune-research laboratory, Cambridgeshire, UK) and DNA was stained with Hoechst 33342 (1:10,000 in blocking buffer) for 30 min at RT. Coverslips were mounted on glass slides with Moviol 4–88.
(§2) Images were captured with a Zeiss AxioimagerM2 microscope equipped with the acquisition software AxioVision (Marly-le-Roi, France).

The subject of the next experiment is RPE1 cell microtubules. Nature of the experiment: Immunofluorescence analysis of RPE1 cell microtubules. Type of experiment: cell-based, human. To be noted: RPE1 cells, 50 nM, 30 min. How it is done:
as §1, §2

The next experiment concerns HeLa cells. In words: Cell viability, PrestoBlue assay, HeLa. Type of experiment: cell-based. To be noted: Homo sapiens, 48 h, mean ± SEM, read-out: GI50 (concentration causing 50% cell growth inhibition). The procedure: (§3) Cell viability was analyzed using the colorimetric PrestoBlue assay (Gibco Invitrogen, #A13262, Carlsbad, CA, USA). Cells were seeded in 96-well microplates (#655077, Greiner, Courtaboeuf, France) at density of 2500 cells per well and allowed to adhere for 24 h before being treated for 48 h with the drugs at indicated concentrations or corresponding concentrations of DMSO as controls, in a final volume of 90 µL. After 48 h of treatment, 10 µL PrestoBlue was added to each well and cells were incubated for another 45 min. The absorbance of each well was measured using a FLUOstar microplate reader (Excitation: 544 nm; Emission: 580 nm, BMG Lab technology, Champagny/Marne, France).

The subject of a further experiment is RPE-1 cells. Nature of the experiment: Cell viability, PrestoBlue assay, RPE-1. Type of experiment: cell-based. To be noted: Homo sapiens, 48 h, mean ± SEM, read-out: GI50 (concentration causing 50% cell growth inhibition). How it is done:
as §3

In a further experiment the target is porcine tubulin (Sus scrofa, UniProt P02550+P02554). In words: biochemical. The procedure:
Tubulin polymerization kit ((#BK004) was purchased from Cytoskeleton, Inc. (Denver, CO, USA). To study the effect of the compounds on MT assembly, the absorbance-based in vitro tubulin polymerization assay was performed following the manufacturer’s protocol. The reaction mixture containing porcine tubulin (40 µM) in G-PEM buffer (80 mM PIPES pH 6.9, 2.0 mM MgCl2, 0.5 mM EGTA, and 5% glycerol) supplemented with 1.0 mM GTP, in the presence of DMSO (0.18%) or the compound to be tested, was prepared and added to each well of a 96-well plate (half area, #675096, Greiner Bio One, Courtaboeuf, France). Tubulin polymerization was monitored by the increase in absorbance over time, measured by a CLARIOstar^plus Microplate reader from BMG Lab technology (Champagny-sur-Marne, France).

For a further experiment, the system named is tubulin. Also on record: method as in PMID 32781579. To be noted: cited from earlier work.
For experiment [2], the system named is microtubular network of interphase cells. Also on record: method as in PMID 32781579. The settings on record: cited from earlier work.

Consider five compounds from paper PMC8533752, “Characterization of Microtubule Destabilizing Drugs: A Quantitative Cell-Based Assay That Bridges the Gap between Tubulin Based- and Cytotoxicity Assays” (Cancers, 2021).

porcine tubulin, sequence (P02554 whole entry): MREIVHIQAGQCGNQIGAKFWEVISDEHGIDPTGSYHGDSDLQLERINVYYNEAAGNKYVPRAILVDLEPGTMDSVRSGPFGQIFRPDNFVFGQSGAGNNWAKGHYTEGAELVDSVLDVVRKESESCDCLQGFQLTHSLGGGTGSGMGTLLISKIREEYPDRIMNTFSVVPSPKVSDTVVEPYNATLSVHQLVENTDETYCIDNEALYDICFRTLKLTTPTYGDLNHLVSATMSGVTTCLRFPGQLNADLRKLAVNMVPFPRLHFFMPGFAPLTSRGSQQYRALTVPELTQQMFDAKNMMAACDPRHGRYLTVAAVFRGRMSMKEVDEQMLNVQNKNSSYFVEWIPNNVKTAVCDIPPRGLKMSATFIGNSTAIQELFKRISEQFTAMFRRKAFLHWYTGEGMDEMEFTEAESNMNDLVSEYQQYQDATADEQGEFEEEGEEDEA
porcine tubulin, sequence (P02550 whole entry): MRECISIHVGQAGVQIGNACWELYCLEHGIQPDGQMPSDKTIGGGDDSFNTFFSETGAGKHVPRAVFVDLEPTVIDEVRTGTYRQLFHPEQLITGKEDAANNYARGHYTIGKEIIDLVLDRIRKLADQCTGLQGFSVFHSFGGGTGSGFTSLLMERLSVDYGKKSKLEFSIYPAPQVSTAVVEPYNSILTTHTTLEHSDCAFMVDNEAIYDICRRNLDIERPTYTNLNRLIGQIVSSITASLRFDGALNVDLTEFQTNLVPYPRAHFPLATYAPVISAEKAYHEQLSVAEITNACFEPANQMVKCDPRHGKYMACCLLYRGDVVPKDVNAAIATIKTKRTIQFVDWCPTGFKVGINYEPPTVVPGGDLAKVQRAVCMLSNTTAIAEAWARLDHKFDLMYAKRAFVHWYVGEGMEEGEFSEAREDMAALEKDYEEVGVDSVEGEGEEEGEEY

In the case of `COc1ccc(/C=C\c2cc(OC)c(OC)c(OC)c2)cc1O` [C-A4, combretastatin-A4], the IC50 in experiment [1] came out at 4.5 ± 0.76 nM. In the experiment on HeLa cells microtubules, the “state of the MT network by immunofluorescence” value (“state of the MT network” for short) is given as “only few MTs remain”. In the experiment with RPE1 cell microtubules, the “effect on cell microtubules by immunofluorescence” value is reported as “depolymerized cell microtubules”. Further, the GI50 in the experiment with HeLa cells stood at 0.93 ± 0.07 nM; in the experiment with RPE-1 cells it was 4.16 ± 1.42 nM.

On to `CC[C@]1(O)C[C@@H]2CN(CCc3c([nH]c4ccccc34)[C@@](C(=O)OC)(c3cc4c(cc3OC)N(C)[C@H]3[C@@](O)(C(=O)OC)[C@H](OC(C)=O)[C@]5(CC)C=CCN6CC[C@]43[C@@H]65)C2)C1` [vinblastine], for which the results for the IC50 (against porcine tubulin; in experiment [1]) were approximately 1000 nM and 4.83 ± 0.17 nM, respectively. Moreover, in the experiment on HeLa cells microtubules, the “state of the MT network” value is “only few MTs remain”. Besides, in the experiment on RPE1 cell microtubules, the “effect on cell microtubules by immunofluorescence” value is “depolymerized cell microtubules”. Also, the GI50 with HeLa cells was determined as 0.73 ± 0.02 nM; in the experiment on RPE-1 cells it was 0.7 ± 0.77 nM.

For the compound `COC(=O)Nc1nc2ccc(C(=O)c3cccs3)cc2[nH]1` [nocodazole], the figures for the IC50 (against porcine tubulin; in experiment [1]) were approximately 5000 nM and 350 ± 76.4 nM, respectively. The “concentration giving almost complete depolymerization / inhibition of tubulin assembly” value on porcine tubulin (tubulin 40 µM) is given as not below 40 µM. For the same compound, the “state of the MT network” value with HeLa cells microtubules is “a MT network is still present”. In addition, the GI50 worked out at 49.3 ± 2.6 nM in the experiment with HeLa cells and 81.7 ± 4.41 nM with RPE-1 cells.

Regarding `COc1cc2c(c(OC)c1OC)-c1ccc(OC)c(=O)cc1[C@@H](NC(C)=O)CC2` [colchicine], in the experiment on HeLa cells microtubules, the “state of the MT network” value is reported as “a MT network is still present”.

In the case of `Cc1cc(-n2cccc2)c(C)c2c1[nH]c1ccc(Cl)cc12` [Carba1], in the experiment on tubulin, the “effect on tubulin assembly kinetics” value is on record as “visible depolymerizing effect”. The “effect on the microtubular network of interphase cells” value in experiment [2] is “no detectable effect”.
